Data on nine compounds can be found in PMC12250754, “Phytochemical Screening and Biological Activities of Lippia multiflora Moldenke” (Molecules, 2025).

SMILES strings stand for the structures. Values after ≈ are worked out from the molar mass of the structure shown. Like-named read-outs stand apart in the source and are kept apart here. Marks after values point to notes of the source that are not given here.

Assay [1] in a line: Reducing power assay. The conditions noted are these: mean ± SD, n = 3. As to the method:
The reducing capacity of the crude extracts was estimated as described by Pereira et al. (2013). Fifty microliters of the crude extracts were mixed with fifty microliters of sodium phosphate buffer (0.2 M, pH 6.6). After serial dilution, a potassium hexacyanoferrate (1% aqueous, 50 μL) solution was added. A trichloroacetic acid (10%, 50 μL) solution was added after 20 min of incubation at 50 °C. Eighty microliters of each mixture was moved to another 96-well plate containing eighty microliters of distilled water. […] All the crude extracts were tested in triplicate.

Assay [2] is described as follows: DPPH free radical scavenging assay. The conditions noted are these: mean ± SD, n = 3. For orientation: The DPPH test is a chemical assay of radical scavenging.
Description: The DPPH free radical scavenging ability was evaluated for the crude extracts using the DPPH (2,2-diphenyl-1-picrylhydrazyl) assay using a modified spectrophotometric method of Motamed and Naghibi (2010) [81]. The crude extracts (100 µL) were added to a 96-well plate containing distilled water (100 µL). After serial dilution, a 0.3 M DPPH/methanol (200 µL) solution was added to the mixture. The mixture was left at room temperature for 30 min, and the absorbance was measured using a SoftMax^R Pro 6 (version 6.3) microplate reader at 517 nm. All the crude extracts were tested in triplicate.
The percentage of radical scavenging was calculated by the following formula:% Free RSA = [(ADPPH − Asample)/(ADPPH)] × 100(2) where ADPPH is the absorbance of the DPPH solution and Asample is the absorbance of the samples and DPPH. The ability of the crude extracts to inhibit 50% of the free radical (IC50) was extrapolated from a graph of % RSA against concentration.
For assay [3] the following is noted: cited from earlier work.
The conditions of assay [4]: cited from earlier work. The source holds these as a separate data set.
Details of assay [5]: method as in earlier work. The note with it: ref 65 (Gülçin et al. 2012); cited from earlier work.
Details of assay [6]: method as in earlier work. The note with it: ref 65 (Gülçin et al. 2012); cited from earlier work. This is another data set of the same source.
Assay [7] concerns Vero cells. The assay is described as follows: MTT cytotoxicity assay. In kind it is cell-based, African green monkey. The note with it: Chlorocebus sabaeus, 48 h, Vero monkey kidney cells, two days incubation, mean ± SD, n = 3. As to the method: African green monkey (Vero) kidney cells (ATCC CCL-81, Cellonex, Johannesburg, South Africa) were cultured in Minimal Essential Medium (MEM), which consisted of Earle’s Balanced Salt Solution (EBSS) and L-Glutamine (2.0 mM) (Cytiva Hyclone, Marlborough, MA, USA) and was supplemented with 10% fetal bovine serum (FBS) and 1% penicillin/streptomycin (P/S, Biowest, Nuaille, France). These cells were incubated for 48 h at 37 °C in a 95% air and 5% CO2 humidified incubator (Nϋve, Ankara, Turkey). The cells were trypsinized with 0.25% trypsin/EDTA (Cytiva Hyclone, Marlborough, MA, USA) and split at a ratio of 1:5 for further passaging at 70 to 80% confluency. […]
The 3-(4,5-dimethylthiazol-2-yl)-2,5-diphenyltetrazolium bromide (MTT) cytotoxicity assay was determined as described by Mariri et al. (2024). The cytotoxic effects of the crude extracts of Lippia multiflora were evaluated against Vero cells. […] The mixture was kept in the dark for 15 min, and the absorbance was measured spectrophotometrically at 570 nm on a SpectraMax iD3 multi-mode microplate reader (Winooski, VT, USA). The cell viability was calculated as the percentage (%) of negative control (0.5% dimethyl sulfoxide; see Equation (3)).
The extracts were calculated using the following equation:(3) Cell viability%=Abssample−AbsBlank/Absnegative control−AbsBlank×100 where Abs is the absorbance.

As for `O=C1O[C@H]([C@@H](O)CO)C(O)=C1O` [Ascorbic acid, ascorbic acid], the “Reducing Power IC0.5” value in assay [1] is 0.355 ± 0.393 ^a µg/mL. Further, the “DPPH IC50” value in assay [2] is reported as 44.308 ± 9.813 ^b µg/mL.

As to `COc1ccc(-c2coc3cc(O[C@@H]4O[C@H](CO)[C@@H](O)[C@H](O)[C@H]4O)ccc3c2=O)cc1` [Compound 8, Formononetin-7-O-glucoside (Ononin)], the “DPPH radical IC50” value in assay [3] (ref 62 (Zgórka et al. 2022)) was 30.18 ± 0.37 µg/mL. For the same compound, in assay [4] (ref 62 (Zgórka et al. 2022)), the “ABTS radical IC50” value is listed as 30.30 ± 0.18 µg/mL.

As for `C[C@@H]1O[C@@H](Oc2c(-c3ccc(O)c(O)c3)oc3cc(O)cc(O)c3c2=O)[C@H](O)[C@H](O)[C@H]1O` [Compound 10, Quercitrin], in assay [3] (isolated from ethyl acetate stem of Lippia graveolens, ref 70 (González Güereca et al. 2007)), the “DPPH radical scavenging IC50” value is 11.24 ± 1.10 µg/mL.

Regarding `CCCCC[C@H](O)CC(=O)CCc1ccc(O)c(OC)c1` [Compound 11, 6-Gingerol], the “DPPH radical scavenging EC50” value in assay [3] (isolated from rhizome of Zingiber officinale, ref 67 (Wang et al. 2003)) was 23.07 µg/mL.

With `Oc1cc(O)c2c(c1)O[C@H](c1cc(O)c(O)c(O)c1)[C@H](O)C2` [Compound 14, (−)-Epigallocatechin], the “DPPH radical scavenging IC50” value in assay [3] (from Japanese knotweed rhizome bark extract, ref 64 (Jug et al. 2021)) is reported as 1.5 µg/mL^−1.

Turning to `COC(=O)C1=COC(C)C2CN3CCC4(C(=O)Nc5c4ccc(OC)c5OC)C3CC12` (stereo not drawn) [Compound 15, Isomajdine], in assay [5], the “Ferrous ion (Fe^2+) chelating activity EC50” value is 10.05 µg/mL. Moreover, in assay [6], the “DMPD scavenging EC50” value is 32.09 µg/mL. For the same compound, the “ABTS scavenging EC50” value in assay [4] (ref 65 (Gülçin et al. 2012)) was 34.11 µg/mL.

As usually defined, the IC50 is the point on the concentration scale where inhibition reaches its midpoint. `COc1cccc2c1C(=O)c1c(O)c3c(c(O)c1C2=O)C[C@@](O)(C(=O)CO)C[C@@H]3O[C@H]1C[C@H](N)[C@H](O)[C@H](C)O1` [Doxorubicin] had an IC50 in assay [7] of 4.97 ± 0.83 µg/mL (≈ 9.14 µM).

Turning to `O=C(O)c1cc(O)c(O)c(O)c1` [Gallic acid, gallic acid], in assay [1], the “Reducing Power IC0.5” value is 8.210 ± 11.257 ^a µg/mL. In assay [2], the “DPPH IC50” value is 37.340 ± 17.529 ^ab µg/mL.

Turning to `O=c1c(O)c(-c2ccc(O)c(O)c2)oc2cc(O)cc(O)c12` [Quercetin, quercetin], the “Reducing Power IC0.5” value in assay [1] is on record as 3.760 ± 2.979 ^a µg/mL. Moreover, the “DPPH IC50” value in assay [2] is listed as 37.361 ± 21.356 ^b µg/mL.
